From ChEMBL document CHEMBL3784938, “Novel heterocyclic ring-fused oleanolic acid derivatives as osteoclast inhibitors for osteoporosis” (Medchemcomm, 2016)
The source made the active and inactive calls. No cut-off for these calls is given here.

Columns and labels:
RAW264.7 [1] = experiment: Antiosteoclast activity in mouse RAW264.7 cells assessed as reduction in multinucleated osteoclasts at 2 to 20 uM after 5 days by TRAP assay; format: functional, cell-based
RAW264.7 [2] = experiment: Downregulation of RANKL-induced CTR mRNA expression in mouse RAW264.7 cells at 1 to 5 uM after 4 days by RT-qPCR analysis; format: functional, cell-based
RAW264.7 [3] = experiment: Antiosteoclast activity in mouse RAW264.7 cells assessed as inhibition of RANKL-induced osteoclast differentiation at 2 uM after 5 days by TRAP assay; format: functional; details: RAW264.7, 120 h
RAW264.7 [4] = experiment: Antiosteoclast activity in mouse RAW264.7 cells assessed as inhibition of RANKL-induced osteoclast differentiation at 20 uM after 5 days by TRAP assay; format: functional; details: RAW264.7, 120 h
RAW264.7 [5] = experiment: Downregulation of RANKL-induced CathK mRNA expression in mouse RAW264.7 cells at 1 to 5 uM after 4 days by RT-qPCR analysis; format: functional, cell-based
[6] = Cytotoxicity against mouse RAW264.7 cells assessed as inhibition of cell viability at 10 uM after 24 hrs by MTT assay; format: cell-based; details: read-out: INH
[7] = Cytotoxicity against mouse RAW264.7 cells assessed as inhibition of cell viability at 2 uM after 24 hrs by MTT assay; format: cell-based; details: read-out: INH
Rattus norvegicus [8] = experiment: Antiosteoporotic effect in ovariectomy rat model assessed as increase in bone mineral density of lumbar spine L3 to L5 at 10 mg/kg/day, po administered for 4 weeks by dual-energy X-ray absorptiometry relative to control; format: functional, organism-based
RAW264.7 [9] = experiment: cells; details: Mus musculus, RAW264.7, 120 h
Description: Antiosteoclast activity in mouse RAW264.7 cells assessed as inhibition of RANKL-induced osteoclast differentiation after 5 days by TRAP assay

[10] = Cytotoxicity against mouse RAW264.7 cells assessed as inhibition of cell viability at 5 uM after 24 hrs by MTT assay; format: cell-based; details: read-out: INH
RAW264.7 [11] = experiment: Downregulation of RANKL-induced NFATc1 mRNA expression in mouse RAW264.7 cells at 5 uM after 2 days by RT-qPCR analysis; format: functional, cell-based
RAW264.7 [12] = experiment: Downregulation of RANKL-induced c-Fos protein expression in mouse RAW264.7 cells at 5 uM after 2 days by Western blot analysis; format: functional, cell-based
RAW264.7 [13] = experiment: Downregulation of RANKL-induced c-Fos mRNA expression in mouse RAW264.7 cells at 1 to 5 uM after 2 days by RT-qPCR analysis; format: functional, cell-based
Rattus norvegicus [14] = experiment: Toxicity in ovariectomy rat model assessed as reduction in uterine weight at 0.1 to 10 mg/kg/day, po administered for 4 weeks; format: organism-based; details: in vivo, 672 h
RAW264.7 [15] = experiment: Downregulation of RANKL-induced TRAP mRNA expression in mouse RAW264.7 cells at 1 to 5 uM after 4 days by RT-qPCR analysis; format: functional, cell-based
Rattus norvegicus [16] = experiment: Toxicity in ovariectomy rat model assessed as undeveloped endometrial gland at 0.1 to 10 mg/kg/day, po administered for 4 weeks by haematoxylin/eosin staining based microscopy; format: organism-based; details: in vivo, 672 h
RAW264.7 [17] = experiment: Downregulation of RANKL-induced NFATc1 protein expression in mouse RAW264.7 cells at 5 uM after 2 days by Western blot analysis; format: functional, cell-based
Rattus norvegicus [18] = experiment: Antiosteoporotic effect in ovariectomy rat model assessed as increase in bone mineral density of lumbar spine L3 to L5 at 0.1 mg/kg/day, po administered for 4 weeks by dual-energy X-ray absorptiometry relative to control; format: functional, organism-based
Rattus norvegicus [19] = experiment: Antiosteoporotic effect in ovariectomy rat model assessed as increase in bone mineral density of lumbar spine L3 to L5 at 1 mg/kg/day, po administered for 4 weeks by dual-energy X-ray absorptiometry relative to control; format: functional, organism-based
Rattus norvegicus [20] = experiment: Toxicity in ovariectomy rat model assessed as undeveloped endometrial luminal epithelium at 0.1 to 10 mg/kg/day, po administered for 4 weeks by haematoxylin/eosin staining based microscopy; format: organism-based; details: in vivo, 672 h
[21] = Cytotoxicity against mouse RAW264.7 cells assessed as inhibition of cell viability at 20 uM after 24 hrs by MTT assay; format: cell-based; details: read-out: INH

SMILES | inhibition at 2 µM (RAW264.7 [3]) [%] | inhibition at 20 µM (RAW264.7 [4]) [%] | cytotoxicity at 24 h, 10 µM [6] [%] | cytotoxicity at 24 h, 2 µM [7] [%] | IC50 (RAW264.7 [9]) [nM] | cytotoxicity at 24 h, 5 µM [10] [%] | Activity (Rattus norvegicus [19]) | cytotoxicity at 24 h, 20 µM [21] [%] | further results
COc1ccc(S(=O)(=O)n2cc3c(n2)C(C)(C)[C@@H]2CC[C@]4(C)[C@H](CC=C5[C@@H]6CC(C)(C)CC[C@]6(C(=O)NC6CCN(Cc7ccccc7)CC6)CC[C@]54C)[C@@]2(C)C3)cc1 | 90 | 100 | 6.6 | 0 | 24 | 0 | Active | 58.2 | inhibition (RAW264.7 [1]): Active; inhibition (RAW264.7 [2]): Active; inhibition (RAW264.7 [5]): Active; Activity (Rattus norvegicus [8]): Active; inhibition (RAW264.7 [11]): Active; inhibition (RAW264.7 [12]): Active; inhibition (RAW264.7 [13]): Active; Activity (Rattus norvegicus [14]): Non-toxic; inhibition (RAW264.7 [15]): Active; Activity (Rattus norvegicus [16]): Non-toxic; inhibition (RAW264.7 [17]): Active; Activity (Rattus norvegicus [18]): inactive; Activity (Rattus norvegicus [20]): Non-toxic
NCCCC(O)(P(=O)(O)O)P(=O)(O)O [ALENDRONATE SODIUM] | 93.2 |  |  |  | 84 |  | Active |  | 
CC1(C)CC[C@]2(C(=O)NCCN3CCCCC3)CC[C@]3(C)C(=CC[C@@H]4[C@@]5(C)Cc6c[nH]nc6C(C)(C)[C@@H]5CC[C@]43C)[C@@H]2C1 | 95.1 | 100 | 0 | 0 | 99 | 0 |  | 0 | 
CC1(C)CC[C@]2(C(=O)NCCN3CCCCC3)CC[C@]3(C)C(=CC[C@@H]4[C@@]5(C)Cc6cn(S(=O)(=O)c7ccc(F)cc7)nc6C(C)(C)[C@@H]5CC[C@]43C)[C@@H]2C1 | 100 | 100 | 74 | 0 | 43 | 0 |  | 70.8 | 
COc1ccc(S(=O)(=O)n2cc3c(n2)C(C)(C)[C@@H]2CC[C@]4(C)[C@H](CC=C5[C@@H]6CC(C)(C)CC[C@]6(C(=O)NC6CCN(Cc7ccccc7)CC6)CC[C@]54C)[C@@]2(C)C3)cc1OC | 93.2 | 100 | 0 | 0 | 35 | 0 |  | 0 | 
